Data published in US6969731B1, “Protease inhibitors that overcome drug resistance” (The University of Illinois, Board of Trustees, priority 1999, dated 2005).
Values joined by “and” are separate entries in the source; they are usually repeats but may differ in a detail not shown here. Equal entries are not always repeated.

Columns and labels:
Type in all cases: biochemical
[1] = target: T1, HIV-1 protease resistant mutant L10I (Human immunodeficiency virus type 1 group M subtype B, UniProt P04585, L498I); details: L10I mutant; with standard error
T1 construct: The active HIVPr is a homodimer of 99-residue monomers; made in house

[2] = system: HIV-1 protease resistant mutant L10I; details: Ki,mut L10I / Ki wild-type
[3] = system: HIV-1 protease resistant mutant G48V; details: Ki,mut G48V / Ki wild-type
[4] = target: T2, HIV-1 protease resistant mutant G48V (Human immunodeficiency virus type 1 group M subtype B, UniProt P04585, G536V); details: G48V mutant; with standard error
T2 construct: The active HIVPr is a homodimer of 99-residue monomers; made in house

[5] = target: T3, HIV-1 protease resistant mutant V82A (Human immunodeficiency virus type 1 group M subtype B, UniProt P04585, V570A); details: V82A mutant; with standard error
T3 construct: The active HIVPr is a homodimer of 99-residue monomers; made in house

[6] = system: HIV-1 protease resistant mutant V82A; details: Ki,mut V82A / Ki wild-type
[7] = target: T4, HIV-1 protease resistant mutant I15V (Human immunodeficiency virus type 1 group M subtype B, UniProt P04585, I503V); details: I15V mutant; with standard error
T4 construct: The active HIVPr is a homodimer of 99-residue monomers; made in house

[8] = system: HIV-1 protease resistant mutant I15V; details: Ki,mut I15V / Ki wild-type
[9] = target: T5, HIV-1 protease resistant mutant M46I (Human immunodeficiency virus type 1 group M subtype B, UniProt P04585, M534I); details: M46I mutant; with standard error
T5 construct: The active HIVPr is a homodimer of 99-residue monomers; made in house

[10] = system: HIV-1 protease resistant mutant M46I; details: Ki,mut M46I / Ki wild-type
wild type HIV-1 protease = target: T6, wild type HIV-1 protease (Human immunodeficiency virus type 1 group M subtype B, UniProt P04585); experiment: Ki determination, wild-type HIV-1 protease; details: W.T. HIV-1 protease; with standard error
T6 construct: The active HIVPr is a homodimer of 99-residue monomers; made in house; host or cells: E. coli
From the text: (§1) The wild-type HIV-1 Pr was produced as recombinant enzyme in E. coli as described by Ido et al. ( 1991) J. Biol. Chem. 266:24359-24366.

[11] = target: T7, HIV-1 protease resistant mutant I64V (Human immunodeficiency virus type 1 group M subtype B, UniProt P04585, I552V); details: I64V mutant; with standard error
T7 construct: The active HIVPr is a homodimer of 99-residue monomers; made in house

[12] = system: HIV-1 protease resistant mutant I64V; details: Ki,mut I64V / Ki wild-type
[13] = system: HIV-1 protease resistant mutant L90M; details: Ki,mut L90M / Ki wild-type
[14] = target: T8, HIV-1 protease resistant mutant L90M (Human immunodeficiency virus type 1 group M subtype B, UniProt P04585, L578M); details: L90M mutant; with standard error
T8 construct: The active HIVPr is a homodimer of 99-residue monomers; made in house

[15] = target: T9, HIV-1 protease resistant mutant I93L (Human immunodeficiency virus type 1 group M subtype B, UniProt P04585, I581L); experiment: Ki determination, HIV-1 protease mutant I93L
T9 construct: The active HIVPr is a homodimer of 99-residue monomers; made in house
From the text: as §1

[16] = system: HIV-1 protease resistant mutant I84V; details: Ki,mut I84V / Ki wild-type
[17] = target: T10, HIV-1 protease resistant mutant I84V (Human immunodeficiency virus type 1 group M subtype B, UniProt P04585, I572V); details: I84V mutant; with standard error
T10 construct: The active HIVPr is a homodimer of 99-residue monomers; made in house

[18] = target: T11, HIV-1 protease resistant mutant K20R (Human immunodeficiency virus type 1 group M subtype B, UniProt P04585, K508R); details: K20R mutant; with standard error
T11 construct: The active HIVPr is a homodimer of 99-residue monomers; made in house

[19] = system: HIV-1 protease resistant mutant K20R; details: Ki,mut K20R / Ki wild-type

## CC(C)CN(CC(O)C(Cc1ccccc1)NC(=O)C(Cc1ccccc1)CC(O)C(Cc1ccccc1)NC(=O)OC1CCCO1)S(=O)(=O)c1cccc(O)c1 [UIC-98-056, (1′S,2R,2′R,3S,5′S)-3-[N-[2′-Benzyl-5′-[N-(2-tetrahydrofuranyloxycarbonyl]amino-4′-hydroxy-6′-phenyl-1′-oxo]hexyl]amino-2-hydroxy-1-[N-isobutylamino-N′[3-hydroxybenzene)sulfonamido]]-4-[phenylbutane]
[1]
  Ki: 1.03 ± 0.25 nM
[2]
  fold of Ki increase from that of the wild-type: 0.2 fold
[3]
  fold of Ki increase from that of the wild-type: 1.4 fold
[4]
  Ki: 8.7 ± 1.4 nM
[5]
  Ki: 6.23 ± 1.2 nM
[6]
  fold of Ki increase from that of the wild-type: 1.0 fold
[7]
  Ki: 1.22 ± 0.14 nM
[8]
  fold of Ki increase from that of the wild-type: 0.2 fold
[9]
  Ki: 3.16 ± 0.81 nM
[10]
  fold of Ki increase from that of the wild-type: 0.5 fold
Wild type HIV-1 protease
  Ki: 6.2 ± 0.8 nM
[11]
  Ki: 6.24 ± 1.52 nM
[12]
  fold of Ki increase from that of the wild-type: 1.0 fold
[13]
  fold of Ki increase from that of the wild-type: 0.3 fold
[14]
  Ki: 2.1 ± 0.5 nM
[15]; I93L mutant, with standard error
  Ki: 3.05 ± 0.64 nM
[15]; Ki,mut I93L / Ki wild-type
  fold of Ki increase from that of the wild-type: 0.5 fold
[16]
  fold of Ki increase from that of the wild-type: 9 fold and 8.9 fold
[17]
  Ki: 55.3 ± 0.46 nM
[18]
  Ki: 2.9 ± 0.74 nM
[19]
  fold of Ki increase from that of the wild-type: 0.5 fold
